Assay [1] has as its target T1, SMYD2 (Homo sapiens, UniProt Q9NRG4). As to the kind of experiment: In Cell Western (ICW) cell-based assay for detection of SMYD2 methylation activity. Set-up: expressed in transfected cells; host or cells: KYSE-150 (human esophageal carcinoma, DSMZ ACC 375). The settings on record: SMYD2 overexpressing KYSE-150 cells, 72 h treatment, p53K370me1 signal normalized to DRAQ5; read-out: IC50 [mol/l] (ICW assay). The source says: 1.2 Cell-Based Assay for Detection of SMYD2 methylation Activity
For the detection of SMYD2 cellular methylation activity an In Cell Western (ICW) assay was established. This assay allows rapid processing of multiple samples for SMYD2 methylation derived immunofluorescence signals, with normalization to cell number via the use of the nucleic acid dye DRAQS. KYSE-150 cells (human esophageal carcinoma cell line; DSMZ-German Collection of Microorganisms and Cell Cultures; No: ACC 375) have been stably transfected with a construct expressing wild-type SMYD2 (NCBI Reference Sequence: NP_064582.2). To detect SMYD2-mediated methylation signals in cells, a customized antibody directed against mono-methylated lysine 370 on protein p53 (p53K370me1) was used. The polyclonal antibody was generated (Eurogentec) against a p53 peptide containing the mono-methylated K370 epitope as described elsewhere (Huang et al., Nature, 2006, 444(7119):629-32).
For conducting the ICW assay 5000 SMYD2 overexpressing KYSE-150 cells/well were seeded in 96-well plates (SIGMA) and cultivated for 24 h. As a control for maximal inhibition of ectopic methylation activity, non-transfected KYSE-150 cells were used. Cells were grown in 49% RPMI 1640 with 49% Ham's F12 media supplemented with 2% heat inactivated fetal calf serum (FCS). For determination of SMYD2 inhibitory activity, cells were treated for 72 h in the presence of compounds or with DMSO. Cells were treated with compounds to be tested at a final concentration range varying from 3.9×10^−8 to 5×10^−6 M. Media was removed and 3.7% (w/v) formaldehyde in PBS was added for 20 min. After two washes with phosphate buffered saline (PBS), 0.25% (v/v) Triton X100 in PBS was added for 15 minutes of permeabilization. After one washing step with PBS, cells were blocked for 1 h with 5% (w/v) non-fat dry milk in PBS. Fixed cells were exposed to primary […] antibody in 5% non-fat dry milk in PBS for 24 h. One row of cells on each plate was not exposed to p53K370me1 antibody and was reserved for background control measurements. The wells were washed three times with PBS, then secondary IR800 conjugated antibody (LI-COR) and DNA-intercalating dye, 5 μM DRAQ5 (LI-COR) were added for 3 h. After 5 washes with PBS, the fluorescence in each well was measured on an Odyssey (LI-COR) scanner at 800 nm (p53K370me1 signal; 764 nm excitation) and 700 nm (DRAQS signal; 683 nm excitation). Fluorescence intensity was quantified and normalized to background and DRAQ5 signals. IC50 values were calculated by fitting the normalized inhibition data to a 4-parameter logistic equation (Minimum, Maximum, IC50, Hill; Y=Max+(Min−Max)/(1+(X/IC50)Hill)) for each tested compound. For IC50 determination C0 (=no inhibition) was defined as the signal measured for DMSO treated controls. Ci (maximal inhibition) was defined as the signal measured for non SMYD2 overexpressing KYSE150 cells.

For assay [2], the target named is T1, SMYD2. As to the kind of experiment: Scintillation Proximity Assay (SPA) for detection of SMYD2 enzymatic inhibition. The assay is classed as biochemical. Also noted: The SMYD2 full length enzyme was produced in-house by expression (with an N-terminal 6× His tag) in E. coli; 6xHis (N); made in house; host or cells: E. coli. As to conditions: SMYD2 full length enzyme, p53 Peptide substrate 1.0 μM, 3H-SAM 60 nM; read-out: IC50 [mol/l] (SPA Assay). Put shortly: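 Full-length N-His SMYD2 from E. coli (typically 3 nM) was preincubated with compounds (0.1 nM–20 μM) for 15 min, then reacted 30 min at 22° C with 60 nM 3H-SAM and 1.0 μM biotinylated p53 peptide in Tris pH 9.0. Streptavidin SPA beads read methylation, and IC50 came from a 4-parameter fit.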
(In general: SPA uses beads or plates that emit light when radiolabelled molecules are held near them.)

T1 sequence (Q9NRG4 whole entry): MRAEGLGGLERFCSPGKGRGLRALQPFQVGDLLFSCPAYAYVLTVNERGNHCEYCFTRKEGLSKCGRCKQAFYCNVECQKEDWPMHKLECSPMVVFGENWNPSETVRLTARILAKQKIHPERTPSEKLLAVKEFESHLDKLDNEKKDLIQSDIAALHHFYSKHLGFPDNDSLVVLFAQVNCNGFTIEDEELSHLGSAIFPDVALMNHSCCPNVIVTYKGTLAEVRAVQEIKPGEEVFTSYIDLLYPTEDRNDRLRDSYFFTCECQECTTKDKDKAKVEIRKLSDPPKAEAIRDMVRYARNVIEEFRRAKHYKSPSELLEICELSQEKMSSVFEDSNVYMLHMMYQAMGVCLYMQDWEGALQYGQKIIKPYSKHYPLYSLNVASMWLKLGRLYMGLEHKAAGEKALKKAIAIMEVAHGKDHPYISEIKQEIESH

Take `CCN(C(=O)[C@H]1CCCN1)C1CN(/C(=N\C#N)Nc2cccc(OC(F)(F)F)c2F)N=C1c1ccc(Cl)c(Cl)c1` (single isomer, unassigned) [Example 21.2, N-[1-{N′-Cyano-N-[2-fluoro-3-(trifluoromethoxy)phenyl]carbamimidoyl}-3-(3,4-dichlorophenyl)-4,5-dihydro-1H-pyrazol-4-yl]-N-ethyl-D-prolinamide]: the IC50 on SMYD2 [1] was determined as 0.228 µM; on SMYD2 [2], 0.878 µM.

As to `CCN(C(=O)[C@H]1CCCN1)C1CN(/C(=N\C#N)Nc2ccc(F)c(OC(F)(F)F)c2)N=C1c1ccc(Cl)c(Cl)c1` (single isomer, unassigned) [Example 22.1, N-[1-{N′-Cyano-N-[4-fluoro-3-(trifluoromethoxy)phenyl]carbamimidoyl}-3-(3,4-dichlorophenyl)-4,5-dihydro-1H-pyrazol-4-yl]-N-ethyl-D-prolinamide], the IC50 is 0.0965 µM at SMYD2 [1] and 0.0305 µM on SMYD2 [2].

Take `CCN(C(=O)[C@H]1CCN1)C1CN(/C(=N\C#N)Nc2cccc(OC(F)F)c2)N=C1c1ccc(Cl)c(C)c1` (single isomer, unassigned) [Example 36.1]: the IC50 at SMYD2 [1] is 0.0148 µM; at SMYD2 [2] it was 0.0105 µM.

As for `CCN(C(=O)[C@H]1C[C@@H](F)CN1)C1CN(/C(=N\C#N)Nc2cccc(OC(F)F)c2)N=C1c1ccc(Cl)c(C)c1` (single isomer, unassigned) [Example 38.1], the values for the IC50 at SMYD2 [1] and on SMYD2 [2] were 0.00255 µM and 0.03 µM, respectively.

The record behind these values is patent publication US20180099937A1, “NOVEL ARYL-CYANOGUANIDINE COMPOUNDS” (Bayer Pharma Aktiengesellschaft, priority 2015, published 2018).
